Laboratory results reported in patent publication US20050208496A1, “Methods of testing for bronchial asthma or chronic obstructive pulmonary disease” (Genox Research, Inc., priority 2002, published 2005).

Test system: respiratory epithelial cells
Conditions: lot 1, Day 7, AI method

IL-13: human IL-13 (Peprotech, Inc.) added to the medium at 50 ng/mL to stimulate respiratory epithelial cells
AI700705 (46658_at) expression fold change: 2.4 fold | AI809925 (53010_at) expression fold change: 3.6 fold | AI821796 (57694_at) expression fold change: 3 fold | AI989346 (52327_s_at) expression fold change: 2.7 fold | AKAP2 (48035_at) expression fold change: 4.4 fold | AKAP10 (36632_at) expression, fold change upon IL-13 stimulation: 2 fold | ALOX15 (34636_at) expression, fold change upon IL-13 stimulation: 72.3 fold | ARHE (35803_at) expression fold change upon IL-13 stimulation: 2.3 fold | ARL7 (57151_at) expression fold change: 3.1 fold | AW019985 (48826_s_at) expression fold change: 6.9 fold | AXL (38433_at) expression, fold change upon IL-13 stimulation: 2.2 fold | BIG2 (34484_at) expression, fold change upon IL-13 stimulation: 2.2 fold | BST2 (39061_at) expression, fold change upon IL-13 stimulation: 3 fold | C1S (40496_at) expression, fold change upon IL-13 stimulation: 4.8 fold | C21orf11 (58957_at) expression fold change: 2.1 fold | CCND3 (1795_g_at) expression fold change upon IL-13 stimulation: 2.1 fold | CDH6 (57421_at) expression fold change: 3.8 fold | CDH26 (46916_at) expression fold change: 8.6 fold | CH25H (32363_at) expression, fold change upon IL-13 stimulation: 15.1 fold | CLDN5 (38995_at) expression, fold change upon IL-13 stimulation: 2.9 fold | CTSC (133_at) expression, fold change upon IL-13 stimulation: 2.8 fold | CXCL16 (44095_at) expression fold change: 4 fold | DBCCR1 (40292_at) expression, fold change upon IL-13 stimulation: 3.1 fold | DD96 (31610_at) expression, fold change upon IL-13 stimulation: 3.3 fold | DDIT3 (39420_at) expression, fold change upon IL-13 stimulation: 5.2 fold | DKFZP564O0823 (41402_at) expression, fold change upon IL-13 stimulation: 3.9 fold | DKFZP566J091 (57197_at) expression fold change: 11.3 fold | DNAJA1 (276_at) expression fold change upon IL-13 stimulation: 2.5 fold | DPP4 (34823_at) expression fold change upon IL-13 stimulation: 3.2 fold | DPYD (38220_at) expression fold change upon IL-13 stimulation: 2.5 fold | EMILIN-2 (51628_at) expression fold change: 3.1 fold | FADS3 (43394_s_at) expression fold change: 4.5 fold | FETUB (32620_at) expression fold change: 8.4 fold | FETUB (33101_g_at) expression fold change: 9 fold | FLJ10261 (43366_at) expression fold change: 10.6 fold | FLJ10261 (43963_at) expression fold change: 8.7 fold | FLJ14281 (50209_at) expression fold change: 2.5 fold | FLJ20420 (46233_at) expression fold change: 2.1 fold | FLJ22332 (56959_at) expression fold change: 3.4 fold | G1P3 (1358_s_at) expression, fold change upon IL-13 stimulation: 2.5 fold | GADD45G (39154_at) expression fold change upon IL-13 stimulation: 4.3 fold | H11 (56474_at) expression fold change: 2.3 fold | HLA-F (37420_i_at) expression, fold change upon IL-13 stimulation: 3.3 fold | HLA-F (37421_f_at) expression, fold change upon IL-13 stimulation: 2.4 fold | HLA-F (49203_f_at) expression fold change: 3.4 fold | HLALS (34427_g_at) expression, fold change upon IL-13 stimulation: 2 fold | HS3ST1 (41556_s_at) expression fold change upon IL-13 stimulation: 3.8 fold | HSD17B2 (38178_at) expression fold change upon IL-13 stimulation: 3.1 fold | HSPA5 (47634_at) expression fold change: 2.7 fold | HUMRTVLH3 (34702_f_at) expression, fold change upon IL-13 stimulation: 6.1 fold | Human hbc647 mRNA sequence (34759_at) expression, fold change upon IL-13 stimulation: 2.5 fold | ICAMt (32640_at) expression fold change upon IL-13 stimulation: 3.1 fold | IFI27 (425_at) expression, fold change upon IL-13 stimulation: 2.1 fold | IFI30 (39728_at) expression, fold change upon IL-13 stimulation: 2.1 fold | IFIT4 (38584_at) expression, fold change upon IL-13 stimulation: 4.6 fold | IL13RA2 (1016_s_at) expression fold change upon IL-13 stimulation: 4.8 fold | IRLB (32961_at) expression fold change: 2.5 fold | ISG15 (1107_s_at) expression, fold change upon IL-13 stimulation: 3 fold | KIAA0469 (37230_at) expression, fold change upon IL-13 stimulation: 2 fold | KIAA0537 (33787_at) expression, fold change upon IL-13 stimulation: 8.8 fold | KIAA1199 (36070_at) expression, fold change upon IL-13 stimulation: 4.3 fold | KRT16 (601_s_at) expression fold change: 3.6 fold | LOC57118 (51085_at) expression fold change: 2.2 fold | LOC64116 (40456_at) expression, fold change upon IL-13 stimulation: 2.8 fold | LRPAP1 (36194_at) expression, fold change upon IL-13 stimulation: 2.2 fold | MAT2A (32571_at) expression fold change upon IL-13 stimulation: 2.5 fold | MDA5 (51920_at) expression fold change: 3.8 fold | MED6 (35432_at) expression fold change: 2.7 fold | MET (1609_g_at) expression, fold change upon IL-13 stimulation: 2.6 fold | MET (1812_s_at) expression, fold change upon IL-13 stimulation: 5 fold | MET (35684_at) expression, fold change upon IL-13 stimulation: 3.4 fold | MFHAS1 (50388_at) expression fold change: 2.3 fold | MICB (35937_at) expression, fold change upon IL-13 stimulation: 3.5 fold | MKP-L (38272_at) expression, fold change upon IL-13 stimulation: 2.9 fold | MMP7 (668_s_at) expression, fold change upon IL-13 stimulation: 2.8 fold | MP1 (34839_at) expression, fold change upon IL-13 stimulation: 2 fold | MXI (37014_at) expression fold change: 2.9 fold | NCF2 (41038_at) expression fold change: 4 fold | NFIL3 (37544_at) expression fold change: 2.5 fold | NK4 (39119_s_at) expression fold change upon IL-13 stimulation: 6 fold | NOS2A (1948_f_at) expression fold change upon IL-13 stimulation: 9.4 fold | NOS2A (48918_at) expression fold change: 8.3 fold | NTRK1 (36805_s_at) expression, fold change upon IL-13 stimulation: 8.7 fold | OAF (39695_at) expression, fold change upon IL-13 stimulation: 4.3 fold | OAS1 (38389_at) expression fold change upon IL-13 stimulation: 2.4 fold | OSF-2 (1451_s_at) expression fold change upon IL-13 stimulation: 25.4 fold | PAK2 (1560_g_at) expression, fold change upon IL-13 stimulation: 2.4 fold | PITPNB (353_at) expression, fold change upon IL-13 stimulation: 2.8 fold | PITPNB (35017_f_at) expression, fold change upon IL-13 stimulation: 2.3 fold | PKD2 (38120_at) expression, fold change upon IL-13 stimulation: 2.7 fold | PLS1 (39951_at) expression fold change: 5.4 fold | PMCH (32005_at) expression fold change: 11 fold | PSMB9 (38287_at) expression fold change upon IL-13 stimulation: 2.6 fold | PVRL2 (50320_g_at) expression fold change: 2.2 fold | RASGRP1 (33291_at) expression fold change: 2.8 fold | RIG-1 (59215_at) expression fold change: 2.8 fold | SECTM1 (41045_at) expression, fold change upon IL-13 stimulation: 4.4 fold | SERPINB2 (37185_at) expression fold change: 5.3 fold | SERPINB4 (1549_s_at) expression fold change: 7.8 fold | SERPINB6 (34789_at) expression fold change: 2 fold | SIAT1 (41352_at) expression fold change upon IL-13 stimulation: 8.7 fold | SLC26A4, pendrin (36376_at) expression fold change: 20.1 fold | SPHK1 (51923_at) expression fold change: 2.1 fold | SSI-1 (41592_at) expression, fold change upon IL-13 stimulation: 6.1 fold | STAT1 (32859_at) expression fold change: 2.1 fold | TGFB2 (1262_s_at) expression fold change upon IL-13 stimulation: 3.2 fold
